Data taken from patent US12398154B2, “Azaquinazoline pan-KRas inhibitors” (Mirati Therapeutics, Inc., priority 2020, dated 2025).

Experiments:
[1] = test system: phospho-ERK in HCT116 (G13D) cells; test: Inhibition of KRas-mediated phosphorylation of ERK (in-cell western); type: cell-based; conditions: Homo sapiens, HCT-116, 3 hours compound, phospho-ERK normalized to GAPDH
In short: (§1)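 Fixed-cell immunodetection of ERK phosphorylation following 3 h compound treatment (0.5% DMSO). IC50 derived by 4-parameter fit of GAPDH-normalized signal versus DMSO control.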

[2] = test system: phospho-ERK in NCI-H358 (G12C) cells; test: as above; type: cell-based; conditions: Homo sapiens, 3 hours compound, phospho-ERK normalized to GAPDH
In short: as §1

[3] = test system: phospho-ERK in PSN-1 (G12R) cells; test: as above; type: cell-based; conditions: Homo sapiens, PSN1, 3 hours compound, phospho-ERK normalized to GAPDH
In short: as §1

[4] = test system: phospho-ERK in A549 (G12S) cells; test: as above; type: cell-based; conditions: Homo sapiens, 3 hours compound, phospho-ERK normalized to GAPDH
In short: as §1

[5] = test system: phospho-ERK in MKN1 (WTdep) cells; test: as above; type: cell-based; conditions: Homo sapiens, MKN-1, 3 hours compound, phospho-ERK normalized to GAPDH
In short: as §1

[6] = test system: phospho-ERK in NCI-H727 (G12V) cells; test: as above; type: cell-based; conditions: Homo sapiens, NCI-H727, 3 h, 3 hours compound, phospho-ERK normalized to GAPDH
In short: as §1

[7] = test system: phospho-ERK in AsPC-1 (G12D) cells; test: as above; type: cell-based; conditions: Homo sapiens, ASPC1, 3 h, 3 hours compound, phospho-ERK normalized to GAPDH
In short: as §1

[8] = test system: phospho-ERK in NCI-H460 (Q61H) cells; test: as above; type: cell-based; conditions: Homo sapiens, NCI-H460, 3 h, 3 hours compound, phospho-ERK normalized to GAPDH
In short: as §1

pERK in H460 cells = test: Inhibition of KRas phosphorylation of ERK (Cisbio HTRF pERK assay); conditions: Homo sapiens, NCI-H460, read-out: Inhibition (HTRF IC50) of KRas-mediated Phosphorylation of ERK, H460
Description: (§2) To harvest cells from flask using 0.05% Trypsin/EDTA solution. Add 10 mL of media to stop trypsinizing. Pipette the cells into a conical bottom 50 mL centrifuge tube and centrifuge 5 min×1000 rpm. • 2. Re-suspend the cell pellet in media, take a cell count, and then adjust the cell density using fresh media. • 3. Seed 6,000 cells into cell culture plate with 50 μL media. […] Incubate cell plate overnight in a 37° C., 5% CO2 incubator. • Compound titrations • 1. Use Tecan to complete the compound addition. Compounds start from 10 uM top, 3-fold dilution, and 10 doses. The final DMSO concentration is 0.8%. Dispensed 0.2 uM Trametinib as Min control. • 2. Incubate cell plate for 3 hrs in the incubator. • Detection with cisbio pERK HTRF kit • 1. […] At the end of the compound treatment, flick-off the media. • 3. Add 35 μL of lysis buffer per well using a Multidrop Combi. Then place on a plate agitator shaking at 300 rpm at 4° C. for 40 mins. • 4. Make up the HTRF antibody buffer. For each assay plate, mix 50 μL of d2-conjugate antibody with 950 μL of detection buffer. Similarly, mix 50 μL of Cryptate antibody with 950 μL of detection buffer. Then mix the two diluted antibodies together. • 5. Dispense 3.4 μL the antibody buffer to wells of an empty assay plate. Seal the plate and centrifuge plate 30 sec×1000 rpm. • 6. At the end of the 4° C. lysis, centrifuge the lysate plates 3 mins×1500 rpm. • 7. Use the Bravo to transfer 13.6 μL of lysate from cell culture plate to assay plate.
(§3) Then incubate assay plate for 2 hrs at room temperature. […] At the end of incubation, read plate on the Envision after centrifuging plate 30 sec× • 1000 rpm.

KRas G12D = KRas G12D (Homo sapiens, UniProt P01116, G12D); test: biochemical;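 note: TR-FRET displacement binding assay on KRas, read after a one-hour incubation at room temperature, IC50 fitted from percent-of-control values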
KRas G12D, sequence (P01116 1-169 isoform P01116-2 G12D): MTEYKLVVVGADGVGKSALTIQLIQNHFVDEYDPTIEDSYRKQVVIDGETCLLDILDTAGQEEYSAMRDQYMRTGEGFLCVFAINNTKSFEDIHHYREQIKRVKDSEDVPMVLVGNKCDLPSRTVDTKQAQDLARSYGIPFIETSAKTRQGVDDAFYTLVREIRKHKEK
Description: (§4) The ability of a compound to bind to KRas was measured using a TR-FRET displacement assay. […] After a 60-minute incubation at room temperature, the reaction was measured using a BMG LABTECH CLARIO star Plus via TR-FRET. […] The POC values were fit to a 4-parameter IC50 equation and the IC50 value reported.

KRas G12R = KRas G12R (Homo sapiens, UniProt P01116, G12R); test: biochemical;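 note: TR-FRET displacement assay of compound binding to KRas, read after one hour at room temperature, potency from a four-parameter fit of percent-of-control values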
KRas G12R, sequence (P01116 1-169 isoform P01116-2 G12R): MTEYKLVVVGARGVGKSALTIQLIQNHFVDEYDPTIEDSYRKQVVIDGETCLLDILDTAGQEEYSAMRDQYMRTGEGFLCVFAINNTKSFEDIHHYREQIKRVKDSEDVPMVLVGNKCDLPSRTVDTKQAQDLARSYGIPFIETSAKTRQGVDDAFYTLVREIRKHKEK
Description: as §4

pERK in ASPC1 cells = test: Inhibition of KRas phosphorylation of ERK (Cisbio HTRF pERK assay); conditions: Homo sapiens, ASPC1, read-out: Inhibition (HTRF IC50) of KRas-mediated Phosphorylation of ERK, AsPC-1
pERK in H727 cells = test: as above; conditions: Homo sapiens, NCI-H727, read-out: Inhibition (HTRF IC50) of KRas-mediated Phosphorylation of ERK, H727
KRas G12V = KRas G12V (Homo sapiens, UniProt P01116, G12V); test: biochemical;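 note: KRas binding measured by TR-FRET displacement at room temperature, IC50 fitted from percent of control values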
KRas G12V, sequence (P01116 1-169 isoform P01116-2 G12V): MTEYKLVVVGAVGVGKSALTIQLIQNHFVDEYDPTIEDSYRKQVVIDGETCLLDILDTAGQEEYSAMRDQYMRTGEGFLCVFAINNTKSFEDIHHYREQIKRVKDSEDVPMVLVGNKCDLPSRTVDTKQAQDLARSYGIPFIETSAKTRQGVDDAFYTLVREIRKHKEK
Description: as §4

pERK in HCT116 cells = test: Inhibition of KRas phosphorylation of ERK (Cisbio HTRF pERK assay); conditions: Homo sapiens, HCT-116, read-out: Inhibition (HTRF IC50) of KRas-mediated Phosphorylation of ERK, HCT116
Description: as §2, §3

KRas G12S = KRas G12S (Homo sapiens, UniProt P01116, G12S); test: biochemical;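 note: TR-FRET displacement binding to KRas, read after one hour incubation at room temperature, IC50 from four-parameter fit of percent of control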
KRas G12S, sequence (P01116 1-169 isoform P01116-2 G12S): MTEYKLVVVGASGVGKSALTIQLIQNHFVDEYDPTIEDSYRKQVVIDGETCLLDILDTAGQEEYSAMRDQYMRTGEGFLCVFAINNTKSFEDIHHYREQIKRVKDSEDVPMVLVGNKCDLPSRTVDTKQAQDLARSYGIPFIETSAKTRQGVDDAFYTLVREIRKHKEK
Description: as §4

KRas G12A = KRas G12A (Homo sapiens, UniProt P01116, G12A); test: biochemical;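 note: binding to KRas measured by TR-FRET displacement after one hour at room temperature, IC50 from a four-parameter fit of percent-of-control values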
KRas G12A, sequence (P01116 1-169 isoform P01116-2 G12A): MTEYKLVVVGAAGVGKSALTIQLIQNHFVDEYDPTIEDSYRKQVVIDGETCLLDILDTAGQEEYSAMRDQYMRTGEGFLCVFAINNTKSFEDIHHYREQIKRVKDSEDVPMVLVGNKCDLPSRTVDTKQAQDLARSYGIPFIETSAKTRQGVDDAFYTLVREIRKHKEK
Description: as §4

KRas Q61H = target: T1, KRas Q61H (Homo sapiens, UniProt P01116, Q61H); test: KRas binding assay (TR-FRET displacement);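 note: TR-FRET signal read after one hour at room temperature, IC50 derived by four-parameter fitting of percent-of-control values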
T1 construct: Biotinylated KRas (corresponding to amino acids 1-169, produced at Accelegan Inc.); biotin (biotinylated); purchased Accelegan Inc
T1 sequence (P01116 1-169 isoform P01116-2 Q61H): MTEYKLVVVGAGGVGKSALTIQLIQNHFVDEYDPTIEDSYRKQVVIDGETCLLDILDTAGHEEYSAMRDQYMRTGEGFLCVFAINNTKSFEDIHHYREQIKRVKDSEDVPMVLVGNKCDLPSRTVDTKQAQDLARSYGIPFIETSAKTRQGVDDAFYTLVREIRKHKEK
Description: as §4

KRas WT = KRas WT (Homo sapiens, UniProt P01116); test: biochemical;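 note: binding to KRas read as TR-FRET displacement after a one-hour room-temperature incubation, IC50 derived from percent-of-control values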
KRas WT, sequence (P01116 1-169 isoform P01116-2): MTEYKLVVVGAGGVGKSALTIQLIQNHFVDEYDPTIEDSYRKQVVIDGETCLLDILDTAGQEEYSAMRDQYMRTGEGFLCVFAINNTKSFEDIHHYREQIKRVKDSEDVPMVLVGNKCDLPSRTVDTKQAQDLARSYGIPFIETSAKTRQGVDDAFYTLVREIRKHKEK
Description: as §4

KRas G13D = target: T2, KRas G13D (Homo sapiens, UniProt P01116, G13D); test: KRas binding assay (TR-FRET displacement);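 note: One-hour room temperature incubation before TR-FRET reading, IC50 from a four-parameter curve fit to percent-of-control data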
T2 construct: Biotinylated KRas (corresponding to amino acids 1-169, produced at Accelegan Inc.); biotin (biotinylated); purchased Accelegan Inc
T2 sequence (P01116 1-169 isoform P01116-2 G13D): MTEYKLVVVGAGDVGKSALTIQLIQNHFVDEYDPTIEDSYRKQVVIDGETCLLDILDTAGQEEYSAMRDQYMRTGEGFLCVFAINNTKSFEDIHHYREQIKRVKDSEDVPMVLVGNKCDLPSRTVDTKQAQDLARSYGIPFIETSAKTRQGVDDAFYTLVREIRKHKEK
Description: as §4

KRas G12C = KRas G12C (Homo sapiens, UniProt P01116, G12C); test: biochemical;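 note: binding to KRas assessed by TR-FRET displacement after one hour incubation at room temperature, potency fitted from percent-of-control values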
KRas G12C, sequence (P01116 1-169 isoform P01116-2 G12C): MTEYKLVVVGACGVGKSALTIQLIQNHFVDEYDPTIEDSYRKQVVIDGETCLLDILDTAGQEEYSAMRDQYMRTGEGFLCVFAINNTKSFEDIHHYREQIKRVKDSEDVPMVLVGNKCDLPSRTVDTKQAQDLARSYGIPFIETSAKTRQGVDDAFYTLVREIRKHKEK
Description: as §4

Row | Compound | IC50 (pERK in H460 cells) [µM] | IC50 (KRas G12D) [µM] | IC50 (KRas G12R) [µM] | IC50 (pERK in ASPC1 cells) [µM] | IC50 (pERK in H727 cells) [µM] | IC50 (KRas G12V) [µM] | IC50 (pERK in HCT116 cells) [µM] | IC50 [1] [nM] | IC50 [2] [nM] | IC50 [3] [nM] | IC50 [4] [nM] | IC50 [5] [nM] | IC50 [6] [nM] | IC50 [7] [nM] | IC50 [8] [nM] | further results
1 | CCc1c(F)ccc2cc(O)cc(-c3ncc4c(N5CCCC6(CNC6=O)C5)nc(OC[C@@]56CCCN5C[C@H](F)C6)nc4c3F)c12 (stereo partly shown) [Example 146] | 0.327 | ≤ 0.002 | 0.003 | 0.092 | 0.4 | ≤ 0.002 | 0.607 | 1000 | 15 | 2530 | 1060 | 22 | ≥ 10000 | 22 | 204 | –
2 | CCc1c(F)ccc2cc(O)cc(-c3ncc4c(N5CCOCC(CO)C5)nc(OC[C@@]56CCCN5C[C@H](F)C6)nc4c3F)c12 (stereo partly drawn) [Example 74, 5-ethyl-6-fluoro-4-(8-fluoro-2-(((2R,7aS)-2-fluorotetrahydro-1H-pyrrolizin-7a(5H)-yl)methoxy)-4-(6-(hydroxymethyl)-1,4-oxazepan-4-yl)pyrido[4,3-d]pyrimidin-7-yl)naphthalen-2-ol] | 0.151 | ≤ 0.002 | 0.003 | 0.065 | 0.084 | ≤ 0.002 | 0.336 | 662 | 10 | ≥ 10000 | 63 | 8 | 355 | 72 | 55 | –
3 | C#Cc1c(F)ccc2cc(O)cc(-c3ncc4c(NCc5c[nH]c6ncccc56)nc(OC[C@@]56CCCN5C[C@H](F)C6)nc4c3F)c12 [Example 150, 4-(4-(((1H-pyrrolo[2,3-b]pyridin-3-yl)methyl)amino)-8-fluoro-2-(((2R,7aS)-2-fluorohexahydro-1H-pyrrolizin-7a-yl)methoxy)pyrido[4,3-d]pyrimidin-7-yl)-5-ethynyl-6-fluoronaphthalen-2-ol] | 0.167 | ≤ 0.002 | ≤ 0.002 | 0.066 | 0.012 | ≤ 0.002 | 0.115 | 996 | 4 | ≥ 10000 | 45 | 13 | 626 | 435 | 362 | –
4 | C#Cc1c(F)ccc2cc(O)cc(-c3ncc4c(N5CCCC6(CC(=O)N6)C5)nc(OC[C@@]56CCCN5C[C@H](F)C6)nc4c3F)c12 (stereo partly shown) [Example 148] | 0.132 | 0.003 | ≤ 0.002 | 0.059 | 0.11 | ≤ 0.002 | 2.21 | ≥ 10000 | 15 | 3780 | 550 | 76 | 260 | 105 | 68 | –
5 | CCc1c(F)ccc2cc(O)cc(-c3ncc4c(NCc5cccnc5N)nc(OC[C@@]56CCCN5C[C@H](F)C6)nc4c3F)c12 [Example 136, 4-(4-(((2-aminopyridin-3-yl)methyl)amino)-8-fluoro-2-(((2R,7aS)-2-fluorohexahydro-1H-pyrrolizin-7a-yl)methoxy)pyrido[4,3-d]pyrimidin-7-yl)-5-ethyl-6-fluoronaphthalen-2-ol] | 0.083 | 0.003 | ≤ 0.002 | 0.318 | 0.052 | ≤ 0.002 | 0.243 | 631 | 4 | ≥ 10000 | 19 | 7 | 181 | 351 | 75 | –
6 | CCc1c(F)ccc2cc(O)cc(-c3ncc4c(N5CCCCC5)nc(OC[C@@]56CCCN5C[C@H](O)C6)nc4c3F)c12 [Example 7] | – | ≤ 0.002 | ≤ 0.002 | – | – | ≤ 0.002 | – | 627 | 199 | 3590 | 1090 | 32 | 530 | 802 | 416 | IC50 (KRas G12S): ≤ 0.002 µM; IC50 (KRas G12A): ≤ 0.002 µM; IC50 (KRas Q61H): 3 nM; IC50 (KRas WT): 0.003 µM; IC50 (KRas G13D): 3 nM; IC50 (KRas G12C): ≤ 0.002 µM

Now from value to molecule, other results behind:

Row | IC50 (pERK in H460 cells) [µM] | IC50 (KRas G12D) [µM] | IC50 (KRas G12R) [µM] | IC50 (pERK in ASPC1 cells) [µM] | IC50 (pERK in H727 cells) [µM] | IC50 (KRas G12V) [µM] | IC50 (pERK in HCT116 cells) [µM] | Compound | IC50 [1] [nM] | IC50 [2] [nM] | IC50 [3] [nM] | IC50 [4] [nM] | IC50 [5] [nM] | IC50 [6] [nM] | IC50 [7] [nM] | IC50 [8] [nM] | further results
7 | 0.336 | ≤ 0.002 | ≤ 0.002 | 0.126 | 0.25 | ≤ 0.002 | 1.64 | CCc1c(F)ccc2cc(O)cc(-c3ncc4c(N5CCCn6nc(N)cc6C5)nc(OC[C@@]56CCCN5C[C@H](F)C6)nc4c3F)c12 [Example 61, 4-(4-(2-amino-7,8-dihydro-4H-pyrazolo[1,5-a][1,4]diazepin-5 (6H)-yl)-8-fluoro-2-(((2R,7aS)-2-fluorohexahydro-1H-pyrrolizin-7a-yl)methoxy)pyrido[4,3-d]pyrimidin-7-yl)-5-ethyl-6-fluoronaphthalen-2-ol] | 518 | 162 | ≥ 10000 | 699 | 46 | 1110 | 306 | 550 | –
8 | 0.069 | 0.006 | ≤ 0.002 | 0.075 | 0.045 | ≤ 0.002 | 0.179 | CCc1c(F)ccc2cc(O)cc(-c3ncc4c(N5CC6CC(O)CC5C6)nc(OC[C@@]56CCCN5C[C@H](F)C6)nc4c3F)c12 (stereo partly shown) [Example 58] | 1460 | 24 | 1310 | 455 | 23 | 242 | 24 | 111 | –
9 | 0.143 | ≤ 0.002 | ≤ 0.002 | 0.125 | 0.072 | ≤ 0.002 | 0.349 | CCc1c(F)ccc2cc(O)cc(-c3ncc4c(NCc5ccc6nccn6c5)nc(OC[C@@]56CCCN5C[C@H](F)C6)nc4c3F)c12 [Example 156, 5-ethyl-6-fluoro-4-(8-fluoro-2-(((2R,7aS)-2-fluorohexahydro-1H-pyrrolizin-7a-yl)methoxy)-4-((imidazo[1,2-a]pyridin-6-ylmethyl)amino)pyrido[4,3-d]pyrimidin-7-yl)naphthalen-2-ol] | 323 | 10 | ≥ 10000 | 33 | 14 | 189 | 335 | 141 | –
10 | – | 0.041 | 0.093 | – | – | 0.057 | – | CCc1c(F)ccc2cccc(-c3ncc4c(N5CCCC6(CNC(=O)C6)C5)nc(OC[C@@]56CCCN5C[C@H](F)C6)nc4c3F)c12 (stereo partly drawn) [Example 37, 7-(7-(8-ethyl-7-fluoronaphthalen-1-yl)-8-fluoro-2-(((2R,7aS)-2-fluorotetrahydro-1H-pyrrolizin-7a(5H)-yl)methoxy)pyrido[4,3-d]pyrimidin-4-yl)-2,7-diazaspiro[4.5]decan-3-one] | 4360 | 1720 | ≥ 10000 | 8950 | 1670 | ≥ 10000 | 2210 | ≥ 10000 | IC50 (KRas G12S): 0.063 µM; IC50 (KRas G12A): 0.052 µM; IC50 (KRas Q61H): 88 nM; IC50 (KRas WT): 0.068 µM; IC50 (KRas G13D): 88 nM; IC50 (KRas G12C): 0.056 µM
